Assay results as given in patent US11819488B2, “Nanosuspensions of salsalate and methods of using the same” (RHNanoPharma, priority 2018, dated 2023).

Columns and labels:
[1] = Particle size analysis, Horiba light scattering; oral excipient screen (Example 1); format: physicochemical; settings: unmilled aqueous suspension of 5% salsalate, FIG. 1B
Description: The pH of salsalate in water was slightly below 4, so no pH adjustment was attempted. The samples were analyzed using Horiba light scattering particle size distributions (PSD). One of several acceptable formulations was selected to scale up to a higher concentration of API using high speed media milling. […] Eight different aqueous nanosuspensions of salsalate, with differing surfactants or combinations of surfactants, were prepared and analyzed for particle size. The first 7 formulations were made by roller milling with a Roller-Mill RM20 (ZOZ GmbH) with YTZ-800 grinding media (Tosoh Corp.) at 192 rpm. The 8th formulation was made via high speed media milling (5000 rpm). The particle sizes of the resultant compositions were then analyzed using a Horiba light scattering particle size analyzer. The compositions and results of the particle size analyses are shown below in Table 2 and in FIGS. 2A, 2B, 3A, 3B etc. through 9A and 9B.

[2] = non-nano salsalate 3.0, 3.5, 4.0 g/d vs placebo, type two diabetes, P=0.003, FIG. 28A; cited from earlier work
[3] = pH of salsalate in water; format: physicochemical
Description: The pH of salsalate in water was slightly below 4, so no pH adjustment was attempted. The samples were analyzed using Horiba light scattering particle size distributions (PSD). One of several acceptable formulations was selected to scale up to a higher concentration of API using high speed media milling.

[4] = studies of 3 weeks or more in duration; cited from earlier work
[5] = in terms of salicylic acid equivalents; cited from earlier work

D90 particle size [1]: 435 μm
mean particle size [1]: 244 μm
median particle size [1]: 222.24 μm
pH of salsalate in water [3]: below 4
SMILES: O=C(Oc1ccccc1C(=O)O)c1ccccc1O [salsalate, 2-hydroxybenzoyloxy benzoic acid]
HbAlc level over time, F test for the overall effect of treatment group [2]: significant
study withdrawal from the salsalate group for any reason [4]: 17-38%
salicylic acid obtained relative to an equivalent dose of aspirin, based on relative AUC values [5]: approximately 84%
